The source of these data is PMC9500072, “Topical application of an irreversible small molecule inhibitor of lysyl oxidases ameliorates skin scarring and fibrosis” (Nature Communications, 2022).

Experiment [1] has as its system full-thickness excision injury scar. The experiment is described as follows: Murine excision injury model. The format is in vivo, C57BL6/J mice. An excerpt:
Having established promising in vivo anti-fibrotic efficacy, we next evaluated a full-thickness excision injury model in mice. Full-thickness excision injuries of approximately 1.1 cm^2 (approximately 2% body surface area) of dorsal skin were created under anesthesia. From Day 2 post-injury, animals received daily application of 0, 0.5, or 1.5% PXS-6302 oil in water cream for 28 days. At the end of the experiment, all animals were euthanised and scar tissue analyzed for collagen and cross-link content. […] Therefore, when applied after injury and during the healing phase, PXS-6302 reduced collagen crosslinking and total collagen deposition in the scar. Reassuringly, the efficacy of PXS-6302 was in line with earlier studies (performed with the first-generation inhibitor, PXS-4787, Supplementary Fig. S7) albeit with what appears to be a more comprehensive impact on crosslinking at a lower dose.
Cell pellets or isolated tissue samples were completely hydrolyzed in 1.5 mL 6 M hydrochloric acid for 24 h at 105 °C. After complete hydrolysis, samples were dried using a vacuum dryer and reconstituted using 200 µL MilliQ water. The sample clean-up was performed using solid-phase extraction method which uses C18 and SCX solid-phase extraction cartridges for sample purification. The samples were run on UPLC-MS-MS (Mass Spectrometer: Thermo Scientific TSQ Endura Triple quadrupole, UPLC: Thermo Scientific Dionex UltiMate 3000) using Agilent RRHD SB-C18,2.1x50mm,1.8um analytical column and solvent A: 10 mM ammonium formate, 0.1% formic acid, 0.1% HFBA in H2O and solvent B: 10 mM ammonium formate, 0.1% formic acid, 0.1% HFBA in MeOH and analyzed as previously described. Limits of detection are listed in Supplementary Table S4.
Nine-week-old C57BL6/J female mice (n = 8 per group) received a full-thickness excision injury of 1.1 cm^2 on dorsal area using a circular 12-mm biopsy punch (Acu-Punch, Badand Medical, P1250) (approximately 2% body surface area) under anesthesia. All animals received intramuscular injection of buprenorphine (0.1 mg/kg) as an analgesia. Paracetamol (1 mg/ml) was provided for 5 days post-injury in drinking water. Animals were allowed to recover for 24 h post-injury. Animals in the treatment group received twice a day application of 3% PXS-4787 cream for 28 days. For PXS-6302, once per day application of 1.5% concentration cream was used. At the end of the experiment, all animals were euthanised using an intraperitoneal injection of pentobarbitone (160 mg Kg-1) under Isoflurane anesthesia, and scar tissues were removed. The scar skin was fixed in 4% paraformaldehyde overnight at 4 °C. After fixation, tissues were washed in sterile PBS at room temperature. Samples were processed in Leica ASP300S Tissue Processor followed by embedding in paraffin blocks using tissue processor (Leica EG1150 modular tissue embedding center). The paraffin blocks were sectioned at 5 µm thickness using a wax microtome (fully automated Leica RM2255). For standard histology, the skin sections were stained with hematoxylin and eosin stain and Masson’s Trichrome stain. The stained sections were used to determine the collagen fiber orientation in the control and treatment specimens. All stained skin tissue sections were processed for whole slide imaging using a ScanScopeXT (Aperio Technologies, USA) at 20-x magnification. The digital images were collected and analyzed using ImageScope software (Aperio Techologies, Inc, USA). A piece of excised mouse scar tissue was processed for the collagen crosslinks extraction. The scar skin was weighed and homogenized in 900 µL PBS (FastPrep-24TM5G(MP) homogenizer). The tissue homogenate equivalent to 10 mg tissue was transferred to heat/acid resistant screw cap tube (VWR 16466-060) and the total volume of 870 µL was adjusted with PBS. The tissue homogenate was reduced with a Sodium borohydride buffer and processed for cross-link extraction protocol as mentioned in previous section.

For experiment [2], the target named is Potassium Channel [KATP] (Cricetus cricetus, UniProt Q09427). The experiment is described as follows: Eurofins panel 265600. The format is binding, ham. The text has this: PXS-4787 competes with a model substrate (putrescine) for the LOX binding site (Fig. 2d). The allylamine of PXS-4787 interacts with the co-factor of the enzyme and elicits mechanism-based inhibition (Fig. 2e). Through careful optimization, and in contrast to BAPN, PXS-4787 selectivity targets lysyl oxidases and is neither an inhibitor of, nor a substrate for, related oxidases (Fig. 2f, g and Supplementary Table S1). Furthermore, PXS-4787 was clean when profiled in a broad panel of macromolecular targets using enzyme and radioligand binding assays (LeadProfilingScreen, Eurofins CEREP Panlabs, 68 assays, test concentration 10 µM; Supplementary Data S1).

The target in experiment [3] is Transporter, Norepinephrine (NET) (Homo sapiens, UniProt P23975). The experiment is described as follows: Eurofins panel 204410. The format is binding.
The target of experiment [4] is T1, DAO (Homo sapiens, UniProt P19801).
T1 sequence (P19801 20-751): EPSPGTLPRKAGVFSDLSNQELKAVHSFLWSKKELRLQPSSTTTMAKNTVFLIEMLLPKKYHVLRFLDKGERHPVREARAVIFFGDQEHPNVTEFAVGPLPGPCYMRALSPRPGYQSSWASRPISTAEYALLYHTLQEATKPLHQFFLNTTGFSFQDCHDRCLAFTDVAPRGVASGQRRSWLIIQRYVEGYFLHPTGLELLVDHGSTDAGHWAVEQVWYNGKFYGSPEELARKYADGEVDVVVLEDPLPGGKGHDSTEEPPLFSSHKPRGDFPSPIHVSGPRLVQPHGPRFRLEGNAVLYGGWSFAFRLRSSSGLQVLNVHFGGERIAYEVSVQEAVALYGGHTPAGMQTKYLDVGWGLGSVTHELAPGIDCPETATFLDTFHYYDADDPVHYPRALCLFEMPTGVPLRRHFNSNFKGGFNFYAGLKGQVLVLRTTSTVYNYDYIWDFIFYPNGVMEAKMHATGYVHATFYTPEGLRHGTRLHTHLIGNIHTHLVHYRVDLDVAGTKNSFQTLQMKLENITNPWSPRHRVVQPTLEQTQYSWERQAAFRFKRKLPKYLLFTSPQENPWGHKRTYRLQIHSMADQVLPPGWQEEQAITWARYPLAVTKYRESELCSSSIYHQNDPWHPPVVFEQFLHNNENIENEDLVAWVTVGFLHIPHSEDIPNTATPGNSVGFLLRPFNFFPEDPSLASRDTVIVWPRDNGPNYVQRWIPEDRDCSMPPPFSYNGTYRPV
The experiment is described as follows: Compound oxidation by DAO. In kind it is biochemical.

Where [5] appears, read: 3% PXS-4787, individual samples.
[6] abbreviates: 0.5 or […] cream daily for 28 days.

Values joined by “and” are separate entries in the source; they are usually repeats but may differ in a detail not shown here. Identical values can stand only once.

Transporter, Norepinephrine (NET), sequence (P23975 whole entry): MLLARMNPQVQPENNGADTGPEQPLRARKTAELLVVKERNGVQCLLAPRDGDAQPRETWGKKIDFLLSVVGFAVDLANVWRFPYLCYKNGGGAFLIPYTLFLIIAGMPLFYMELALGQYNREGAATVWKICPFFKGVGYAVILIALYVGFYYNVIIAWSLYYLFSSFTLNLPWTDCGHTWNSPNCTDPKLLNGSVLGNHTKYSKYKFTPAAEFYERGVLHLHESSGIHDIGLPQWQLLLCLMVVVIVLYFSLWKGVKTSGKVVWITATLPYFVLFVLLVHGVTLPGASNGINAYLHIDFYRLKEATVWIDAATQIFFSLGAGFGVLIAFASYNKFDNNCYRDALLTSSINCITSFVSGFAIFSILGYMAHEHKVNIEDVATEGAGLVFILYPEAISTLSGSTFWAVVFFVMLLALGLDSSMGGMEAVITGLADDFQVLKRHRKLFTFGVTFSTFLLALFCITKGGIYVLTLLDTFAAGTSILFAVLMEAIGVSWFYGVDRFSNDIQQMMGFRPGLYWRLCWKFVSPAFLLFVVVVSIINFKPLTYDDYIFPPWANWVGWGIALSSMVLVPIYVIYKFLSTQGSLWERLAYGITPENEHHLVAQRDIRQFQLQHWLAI
Potassium Channel [KATP], sequence (Q09427 whole entry): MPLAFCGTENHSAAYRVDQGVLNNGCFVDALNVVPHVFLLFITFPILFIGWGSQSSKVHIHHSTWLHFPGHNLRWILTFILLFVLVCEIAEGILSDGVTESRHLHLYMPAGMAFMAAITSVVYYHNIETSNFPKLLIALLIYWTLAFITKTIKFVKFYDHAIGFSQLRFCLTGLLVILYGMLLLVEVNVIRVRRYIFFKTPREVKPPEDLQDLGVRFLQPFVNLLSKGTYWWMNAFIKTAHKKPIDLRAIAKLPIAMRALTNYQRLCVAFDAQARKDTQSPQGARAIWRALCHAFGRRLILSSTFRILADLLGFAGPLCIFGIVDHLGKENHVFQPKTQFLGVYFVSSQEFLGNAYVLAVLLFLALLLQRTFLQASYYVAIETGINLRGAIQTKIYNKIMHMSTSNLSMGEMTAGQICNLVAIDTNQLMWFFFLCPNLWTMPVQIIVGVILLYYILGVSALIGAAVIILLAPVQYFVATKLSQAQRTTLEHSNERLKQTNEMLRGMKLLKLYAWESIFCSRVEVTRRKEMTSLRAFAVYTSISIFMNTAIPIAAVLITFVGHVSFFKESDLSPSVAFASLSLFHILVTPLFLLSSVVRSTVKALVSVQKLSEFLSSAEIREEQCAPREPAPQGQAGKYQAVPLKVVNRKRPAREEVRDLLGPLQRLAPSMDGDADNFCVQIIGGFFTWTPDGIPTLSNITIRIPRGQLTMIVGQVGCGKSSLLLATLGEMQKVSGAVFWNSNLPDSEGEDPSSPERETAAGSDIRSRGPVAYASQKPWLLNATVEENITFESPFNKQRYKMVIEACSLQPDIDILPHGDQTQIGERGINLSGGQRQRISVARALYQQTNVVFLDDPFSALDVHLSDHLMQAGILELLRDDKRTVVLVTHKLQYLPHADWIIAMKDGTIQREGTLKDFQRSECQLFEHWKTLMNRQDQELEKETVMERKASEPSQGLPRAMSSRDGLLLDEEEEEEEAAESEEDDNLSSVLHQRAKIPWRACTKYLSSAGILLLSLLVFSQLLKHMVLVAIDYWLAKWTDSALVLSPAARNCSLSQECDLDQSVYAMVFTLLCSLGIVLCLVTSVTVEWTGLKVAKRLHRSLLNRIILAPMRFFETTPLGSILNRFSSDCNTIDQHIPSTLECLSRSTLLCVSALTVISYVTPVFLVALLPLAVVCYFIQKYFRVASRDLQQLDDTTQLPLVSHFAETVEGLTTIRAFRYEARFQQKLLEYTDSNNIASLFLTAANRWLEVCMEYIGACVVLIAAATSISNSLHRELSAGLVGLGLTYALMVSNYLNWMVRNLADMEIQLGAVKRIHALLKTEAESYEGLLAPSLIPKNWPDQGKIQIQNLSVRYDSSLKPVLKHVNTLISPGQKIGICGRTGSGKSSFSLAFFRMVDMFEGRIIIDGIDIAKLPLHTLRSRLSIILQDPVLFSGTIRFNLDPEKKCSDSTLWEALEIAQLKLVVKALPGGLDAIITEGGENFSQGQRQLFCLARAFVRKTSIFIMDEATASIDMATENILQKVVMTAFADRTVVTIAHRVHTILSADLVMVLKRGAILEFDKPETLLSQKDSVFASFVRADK

For the molecule `NC/C=C(\F)CS(=O)(=O)c1ccccc1` [PXS-4787], in experiment [1] (setting [5]), the DLHNL is 32.598 pmol/mg tissue and 48.992 pmol/mg tissue and 38.94 pmol/mg tissue and 30.0045 pmol/mg tissue and 38.524 pmol/mg tissue and 51.535 pmol/mg tissue and 45.099 pmol/mg tissue and 36.456 pmol/mg tissue and 45.26 pmol/mg tissue; the DPD was 0.2026 pmol/mg tissue and 0.9604 pmol/mg tissue and 0.9521 pmol/mg tissue and 0.3416 pmol/mg tissue and 0.3259 pmol/mg tissue and 0.4694 pmol/mg tissue and 0.5793 pmol/mg tissue and 0.3046 pmol/mg tissue; the HLNL was 11.709 pmol/mg tissue and 8.873 pmol/mg tissue and 7.946 pmol/mg tissue and 7.092 pmol/mg tissue and 8.4919 pmol/mg tissue and 8.338 pmol/mg tissue and 7.8195 pmol/mg tissue and 7.455 pmol/mg tissue; the HYP is 8529.4 pmol/mg tissue and 13422.8 pmol/mg tissue and 10345 pmol/mg tissue and 7129.2 pmol/mg tissue and 10620.5 pmol/mg tissue and 15497 pmol/mg tissue and 11840.8 pmol/mg tissue and 10529.6 pmol/mg tissue and 12893.7 pmol/mg tissue. In addition, the PYD in experiment [1] (setting [5]) is 3.941 pmol/mg tissue and 2.065 pmol/mg tissue and 3.401 pmol/mg tissue and 3.561 pmol/mg tissue and 3.481 pmol/mg tissue and 3.75 pmol/mg tissue and 2.469 pmol/mg tissue and 2.034 pmol/mg tissue. In experiment [1] (3% cream for 28 days), the “collagen cross-links formation in mouse scar” value is reported as “Reduced”. The molecule also displayed an inhibition at 10 µM in experiment [2] of 0%. Besides, the inhibition at 10 µM in experiment [3] (10 µM) amounted to 24%.
On to `N#CCCN` [BAPN, β-aminoproprionitrile, reference compound], for which the “DAO specificity (Fig 2G), oxidation, individual experiments” value (shortened to “DAO specificity (Fig 2G), oxidation”) is 3.03 and 4.57 and 4.19 and 2.62 and 3.96 in experiment [4] (30); 5.81 and 3.22 and 2.98 and 4.96 in experiment [4] (60); 9.3 and 4.42 and 7.32 in experiment [4] (90).
Take `NC/C=C(\F)C(F)(F)S(=O)(=O)c1ccccc1` [PXS-6302]: the “DAO specificity (Fig 2G), oxidation” value in experiment [4] (30) was 1.03 and 0.98 and 1 and 1.08 and 0.97 and 0.99 and 1.04 and 1.01 and 1.07 and 0.91. Besides, in experiment [4] (60), the “DAO specificity (Fig 2G), oxidation” value is 1.17 and 1.11 and 1.01. Further, the “DAO specificity (Fig 2G), oxidation” value in experiment [4] (90) was 1.87 and 1.39 and 1.55. For the same molecule, in experiment [1] (0.5%, individual animals), the DHLNL was 67.3445 pmol/mg protein and 104.493 pmol/mg protein and 49.564 pmol/mg protein and 93.5833 pmol/mg protein and 114.502 pmol/mg protein and 104.151 pmol/mg protein and 87.6663 pmol/mg protein and 102.971 pmol/mg protein; the DPD is 0.09524 pmol/mg protein and 0.2563 pmol/mg protein and 0.2515 pmol/mg protein and 0.4184 pmol/mg protein and 0.4492 pmol/mg protein and 0.4037 pmol/mg protein and 0.2113 pmol/mg protein and 0.2885 pmol/mg protein; the HLNL is 0.7003 pmol/mg protein and 0.9861 pmol/mg protein and 0.7921 pmol/mg protein and 1.215 pmol/mg protein and 1.527 pmol/mg protein and 1.179 pmol/mg protein and 1.122 pmol/mg protein and 0.9282 pmol/mg protein; the HYP was 135437 pmol/mg protein and 169286 pmol/mg protein and 127310 pmol/mg protein and 207537 pmol/mg protein and 183083 pmol/mg protein and 195703 pmol/mg protein and 151852 pmol/mg protein and 169426 pmol/mg protein. In experiment [1] (0.5%, individual animals), the PYD is 1.932 pmol/mg protein and 5.635 pmol/mg protein and 3.784 pmol/mg protein and 5.7092 pmol/mg protein and 5.347 pmol/mg protein and 5.273 pmol/mg protein and 4.615 pmol/mg protein and 4.89 pmol/mg protein. Also, in experiment [1] (setting [6]), the “hydroxyproline concentration in scar” value was “dose-dependent reduction”; the “mature and immature crosslinks in scar” value is “dose-dependently diminished”. Also, in experiment [3] (read-out: % Inh.), the inhibition at 30 µM was determined as 55%.
